# Measured values: ChEMBL document CHEMBL4414672, “Synthesis of certain benzothieno[3,2-d]pyrimidine derivatives as a selective SIRT2 inhibitors” (Eur J Med Chem, 2020)
# Key:
# Format in all cases: functional
# OVCAR-8 = test: Growth inhibition of human OVCAR8 cells at 10^-5 M incubated for 48 hrs by sulforhodamine B assay; conditions: OVCAR-8, 48 h, read-out: GI
# SF-539 = test: Growth inhibition of human SF539 cells at 10^-5 M incubated for 48 hrs by sulforhodamine B assay; conditions: SF-539, 48 h, read-out: GI
# 786-0 = test: Growth inhibition of human 786-0 cells at 10^-5 M incubated for 48 hrs by sulforhodamine B assay; conditions: 786-0, 48 h, read-out: GI
# CAKI-1 = test: Growth inhibition of human Caki1 cells at 10^-5 M incubated for 48 hrs by sulforhodamine B assay; conditions: CAKI-1, 48 h, read-out: GI
# HCT-15 = test: Growth inhibition of human HCT15 cells at 10^-5 M incubated for 48 hrs by sulforhodamine B assay; conditions: HCT-15, 48 h, read-out: GI
# TK-10 = test: Growth inhibition of human TK10 cells at 10^-5 M incubated for 48 hrs by sulforhodamine B assay; conditions: TK-10, 48 h, read-out: GI
# UACC-257 = test: Growth inhibition of human UACC257 cells at 10^-5 M incubated for 48 hrs by sulforhodamine B assay; conditions: UACC-257, 48 h, read-out: GI
# SW-620 = test: Growth inhibition of human SW620 cells at 10^-5 M incubated for 48 hrs by sulforhodamine B assay; conditions: SW-620, 48 h, read-out: GI
# HOP-62 = test: Growth inhibition of human HOP62 cells at 10^-5 M incubated for 48 hrs by sulforhodamine B assay; conditions: HOP-62, 48 h, read-out: GI
# NCI-H226 = test: Growth inhibition of human NCI-H226 cells at 10^-5 M incubated for 48 hrs by sulforhodamine B assay; conditions: NCI-H226, 48 h, read-out: GI
# OVCAR-5 = test: Growth inhibition of human OVCAR5 cells at 10^-5 M incubated for 48 hrs by sulforhodamine B assay; conditions: OVCAR-5, 48 h, read-out: GI
# EKVX = test: Growth inhibition of human EKVX cells at 10^-5 M incubated for 48 hrs by sulforhodamine B assay; conditions: read-out: GI
# RXF 393 = test: Growth inhibition of human RXF393 cells at 10^-5 M incubated for 48 hrs by sulforhodamine B assay; conditions: RXF 393, 48 h, read-out: GI
# HOP-92 = test: Growth inhibition of human HOP92 cells at 10^-5 M incubated for 48 hrs by sulforhodamine B assay; conditions: HOP-92, 48 h, read-out: GI
# T47D = test: Growth inhibition of human T47D cells at 10^-5 M incubated for 48 hrs by sulforhodamine B assay; conditions: read-out: GI
# A549 = test: Growth inhibition of human A549/ATCC cells at 10^-5 M incubated for 48 hrs by sulforhodamine B assay; conditions: A549, 48 h, read-out: GI
# SF-295 = test: Growth inhibition of human SF295 cells at 10^-5 M incubated for 48 hrs by sulforhodamine B assay; conditions: SF-295, 48 h, read-out: GI
# HCC 2998 = test: Growth inhibition of human HCC2998 cells at 10^-5 M incubated for 48 hrs by sulforhodamine B assay; conditions: HCC 2998, 48 h, read-out: GI
# MOLT-4 = test: Growth inhibition of human MOLT4 cells at 10^-5 M incubated for 48 hrs by sulforhodamine B assay; conditions: MOLT-4, 48 h, read-out: GI
# NCI-H460 = test: Growth inhibition of human NCI-H460 cells at 10^-5 M incubated for 48 hrs by sulforhodamine B assay; conditions: NCI-H460, 48 h, read-out: GI
# SK-MEL-28 = test: Growth inhibition of human SK-MEL-28 cells at 10^-5 M incubated for 48 hrs by sulforhodamine B assay; conditions: SK-MEL-28, 48 h, read-out: GI
# SR = test: Growth inhibition of human SR cells at 10^-5 M incubated for 48 hrs by sulforhodamine B assay; conditions: read-out: GI
# LOX IMVI = test: Growth inhibition of human LOXIMVI cells at 10^-5 M incubated for 48 hrs by sulforhodamine B assay; conditions: read-out: GI
# COLO 205 = test: Growth inhibition of human COLO205 cells at 10^-5 M incubated for 48 hrs by sulforhodamine B assay; conditions: COLO 205, 48 h, read-out: GI
# MDA-MB-231 = test: Growth inhibition of human MDA-MB-231 cells at 10^-5 M incubated for 48 hrs by sulforhodamine B assay; conditions: MDA-MB-231, 48 h, read-out: GI
# SNB-75 = test: Growth inhibition of human SNB75 cells at 10^-5 M incubated for 48 hrs by sulforhodamine B assay; conditions: SNB-75, 48 h, read-out: GI
# KM12 = test: Growth inhibition of human KM12 cells at 10^-5 M incubated for 48 hrs by sulforhodamine B assay; conditions: KM12, 48 h, read-out: GI
# DU-145 = test: Growth inhibition of human DU145 cells at 10^-5 M incubated for 48 hrs by sulforhodamine B assay; conditions: DU-145, 48 h, read-out: GI
# M14 = test: Growth inhibition of human M14 cells at 10^-5 M incubated for 48 hrs by sulforhodamine B assay; conditions: M14, 48 h, read-out: GI
# MDA-MB-435 = test: Growth inhibition of human MDA-MB-435 cells at 10^-5 M incubated for 48 hrs by sulforhodamine B assay; conditions: MDA-MB-435, 48 h, read-out: GI
# U-251 = test: Growth inhibition of human U251 cells at 10^-5 M incubated for 48 hrs by sulforhodamine B assay; conditions: U-251, 48 h, read-out: GI
# SK-OV-3 = test: Growth inhibition of human SKOV3 cells at 10^-5 M incubated for 48 hrs by sulforhodamine B assay; conditions: SK-OV-3, 48 h, read-out: GI
# Hs-578T = test: Growth inhibition of human Hs 578T cells at 10^-5 M incubated for 48 hrs by sulforhodamine B assay; conditions: read-out: GI
# UACC-62 = test: Growth inhibition of human UACC62 cells at 10^-5 M incubated for 48 hrs by sulforhodamine B assay; conditions: UACC-62, 48 h, read-out: GI
# HCT-116 = test: Growth inhibition of human HCT116 cells at 10^-5 M incubated for 48 hrs by sulforhodamine B assay; conditions: HCT-116, 48 h, read-out: GI
# SK-MEL-5 = test: Growth inhibition of human SK-MEL-5 cells at 10^-5 M incubated for 48 hrs by sulforhodamine B assay; conditions: SK-MEL-5, 48 h, read-out: GI
# HL-60(TB) = test: Growth inhibition of human HL-60(TB) cells at 10^-5 M incubated for 48 hrs by sulforhodamine B assay; conditions: HL-60, 48 h, read-out: GI
# IGROV-1 = test: Growth inhibition of human IGROV1 cells at 10^-5 M incubated for 48 hrs by sulforhodamine B assay; conditions: IGROV-1, 48 h, read-out: GI
smiles,measurement,setting,value
Oc1ccccc1C1NC(=S)Nc2c1sc1ccc(Cl)cc21 (stereo unspecified),inhibition of growth at 10 µM,OVCAR-8,5.15%
same,inhibition of growth at 10 µM,SF-539,-0.95%
same,inhibition of growth at 10 µM,786-0,6.17%
same,inhibition of growth at 10 µM,CAKI-1,12.9%
same,inhibition of growth at 10 µM,HCT-15,-0.05%
same,inhibition of growth at 10 µM,TK-10,-8.34%
same,inhibition of growth at 10 µM,UACC-257,-1.4%
same,inhibition of growth at 10 µM,SW-620,-8%
same,inhibition of growth at 10 µM,HOP-62,5.51%
same,inhibition of growth at 10 µM,NCI-H226,21.8%
same,inhibition of growth at 10 µM,OVCAR-5,5.8%
same,inhibition of growth at 10 µM,EKVX,19.7%
same,inhibition of growth at 10 µM,RXF 393,2.85%
same,inhibition of growth at 10 µM,HOP-92,13.4%
same,inhibition of growth at 10 µM,T47D,24.8%
same,inhibition of growth at 10 µM,A549,5.42%
same,inhibition of growth at 10 µM,SF-295,-0.95%
same,inhibition of growth at 10 µM,HCC 2998,-10.6%
same,inhibition of growth at 10 µM,MOLT-4,9.69%
same,inhibition of growth at 10 µM,NCI-H460,1.28%
same,inhibition of growth at 10 µM,SK-MEL-28,-6.12%
same,inhibition of growth at 10 µM,SR,16.3%
same,inhibition of growth at 10 µM,LOX IMVI,6.44%
same,inhibition of growth at 10 µM,COLO 205,-1.76%
same,inhibition of growth at 10 µM,MDA-MB-231,27.4%
same,inhibition of growth at 10 µM,SNB-75,21.1%
same,inhibition of growth at 10 µM,KM12,1.3%
same,inhibition of growth at 10 µM,DU-145,-7.9%
same,inhibition of growth at 10 µM,M14,7.43%
same,inhibition of growth at 10 µM,MDA-MB-435,-10.2%
same,inhibition of growth at 10 µM,U-251,-5.09%
same,inhibition of growth at 10 µM,SK-OV-3,8.48%
same,inhibition of growth at 10 µM,Hs-578T,8.15%
same,inhibition of growth at 10 µM,UACC-62,13.1%
same,inhibition of growth at 10 µM,HCT-116,8.97%
same,inhibition of growth at 10 µM,SK-MEL-5,6.32%
same,inhibition of growth at 10 µM,HL-60(TB),-4.7%
same,inhibition of growth at 10 µM,IGROV-1,13.6%
O=C1SC2=Nc3c(sc4ccc(Cl)cc34)C(c3ccc4ccccc4c3)N2C1=O (stereo unspecified),inhibition of growth at 10 µM,OVCAR-8,5.42%
same,inhibition of growth at 10 µM,SF-539,5.81%
same,inhibition of growth at 10 µM,786-0,2.6%
same,inhibition of growth at 10 µM,CAKI-1,30.1%
same,inhibition of growth at 10 µM,HCT-15,7.44%
same,inhibition of growth at 10 µM,TK-10,-28.7%
same,inhibition of growth at 10 µM,UACC-257,-0.63%
same,inhibition of growth at 10 µM,SW-620,4.8%
same,inhibition of growth at 10 µM,HOP-62,8.58%
same,inhibition of growth at 10 µM,NCI-H226,24%
same,inhibition of growth at 10 µM,OVCAR-5,-1.12%
same,inhibition of growth at 10 µM,EKVX,12.9%
same,inhibition of growth at 10 µM,RXF 393,3.64%
same,inhibition of growth at 10 µM,HOP-92,16.5%
same,inhibition of growth at 10 µM,T47D,24.5%
same,inhibition of growth at 10 µM,A549,1.04%
same,inhibition of growth at 10 µM,SF-295,-2.51%
same,inhibition of growth at 10 µM,HCC 2998,-27.7%
same,inhibition of growth at 10 µM,MOLT-4,11.9%
same,inhibition of growth at 10 µM,NCI-H460,4.51%
same,inhibition of growth at 10 µM,SK-MEL-28,-13.2%
same,inhibition of growth at 10 µM,SR,26.4%
same,inhibition of growth at 10 µM,LOX IMVI,1.85%
same,inhibition of growth at 10 µM,COLO 205,-2.01%
same,inhibition of growth at 10 µM,MDA-MB-231,18.1%
same,inhibition of growth at 10 µM,SNB-75,5.78%
same,inhibition of growth at 10 µM,KM12,7.8%
same,inhibition of growth at 10 µM,DU-145,-1.57%
same,inhibition of growth at 10 µM,M14,7.5%
same,inhibition of growth at 10 µM,MDA-MB-435,2.92%
same,inhibition of growth at 10 µM,U-251,-1.96%
same,inhibition of growth at 10 µM,SK-OV-3,9.71%
same,inhibition of growth at 10 µM,Hs-578T,1.4%
same,inhibition of growth at 10 µM,UACC-62,34.2%
same,inhibition of growth at 10 µM,HCT-116,23.4%
same,inhibition of growth at 10 µM,SK-MEL-5,5.6%
same,inhibition of growth at 10 µM,HL-60(TB),-4.12%
same,inhibition of growth at 10 µM,IGROV-1,26.4%
